Like-named read-outs stand apart in the source and are kept apart here.
How the values were obtained:
[1] = Solubility to fluorine-based solvent; details: 25° C.
Experimental: Various fluorine-based solvents were each added in a manner that a concentration was to be 1% by mass, and the resultant was stirred with maintaining the temperature at 25° C. The solubility was evaluated based on the following evaluation criteria.
• 1: The ionic liquid was dissolved in the fluorine-based solvent, and no precipitation was generated even after leaving the solution to stand. • 2: The ionic liquid was insoluble to the fluorine-based solvent, or was partially dissolved but precipitation was generated when the solution was left to stand. <<Friction Properties>> —Production of Lubricant-Coated Hard Disk—

[2] = Measurement of thermal decomposition temperature (TG-DTA, 5% weight reduction); format: physicochemical
Experimental: As measuring conditions, the heating speed was 10° C./min and the air flow rate was 200 mL/min.

[3] = Comprehensive evaluation (thermal decomposition temperature, friction properties, solubility)
[4] = TG-DTA, heating speed 10° C./min, air flow 200 mL/min

Row | Compound | Solubility to fluorine-based solvent ([1]; Novec 7100, 1% by mass) | Solubility to fluorine-based solvent ([1]; Novec 7200, 1% by mass) | Solubility to fluorine-based solvent ([1]; Novec 7300, 1% by mass) | Solubility to fluorine-based solvent ([1]; Vertrel XF, 1% by mass) | Thermal decomposition (5% weight reduction) temperature [2, 4] | Thermal decomposition (5% weight reduction) temperature [2] | Thermal stability and friction coefficient (in words) [3]
1 | NCCOCC(F)(F)OC(F)(F)C(F)(F)OC(F)(F)C(F)(F)OC(F)(F)C(F)(F)C(F)(F)C(F)(F)F.O=S(=O)(O)CCCOCC(F)(F)OC(F)(F)C(F)(F)OC(F)(F)C(F)(F)OC(F)(F)C(F)(F)C(F)(F)C(F)(F)F [Ex. 1, PFTEG amine-PFTEG sulfonic acid salt] | 1 | 1 | 1 | 1 | 246 °C |  | 
2 | NCCC(F)(F)C(F)(F)C(F)(F)C(F)(F)C(F)(F)C(F)(F)C(F)(F)C(F)(F)F.O=S(=O)(O)CCCOCC(F)(F)OC(F)(F)C(F)(F)OC(F)(F)C(F)(F)OC(F)(F)C(F)(F)C(F)(F)C(F)(F)F [Ex. 2, 1H,1H,2H,2H-perfluorodecylamine-PFTEG sulfonic acid salt] |  |  |  |  |  | 254 °C | 
3 | NCCOCC(F)(F)OC(F)(F)C(F)(F)OC(F)(F)C(F)(F)OC(F)(F)C(F)(F)C(F)(F)C(F)(F)F.O=S(=O)(O)C(F)(F)C(F)(F)C(F)(F)C(F)(F)F [Ex. 3, PFTEG amine-perfluorobutane sulfonic acid salt] | 1 | 1 | 1 | 1 | 302 °C |  | more excellent
4 | NCCC(F)(F)C(F)(F)C(F)(F)C(F)(F)C(F)(F)C(F)(F)C(F)(F)C(F)(F)F.O=C(O)C(F)(F)OC(F)(F)C(F)(F)OC(F)(F)C(F)(F)OC(F)(F)C(F)(F)C(F)(F)C(F)(F)F [Ex. 4, 1H,1H,2H,2H-perfluorodecylamine-perfluoro-3,6,9-trioxatridecanoic acid salt] | 1 | 1 | 1 | 1 | 169 °C |  | 
5 | NCCOCC(F)(F)OC(F)(F)C(F)(F)OC(F)(F)C(F)(F)OC(F)(F)C(F)(F)C(F)(F)C(F)(F)F.O=S(=O)(NS(=O)(=O)C(F)(F)C(F)(F)C(F)(F)C(F)(F)F)C(F)(F)C(F)(F)C(F)(F)C(F)(F)F [Ex. 5, PFTEG amine-bis(perfluorobutanesulfonyl)imide salt] | 1 | 1 | 1 | 1 | 291 °C |  | 
6 | NCCC(F)(F)C(F)(F)C(F)(F)C(F)(F)C(F)(F)C(F)(F)C(F)(F)C(F)(F)F.O=S(=O)(O)C(F)(F)C(F)(F)C(F)(F)C(F)(F)F [compound 2, 1H,1H,2H,2H-perfluorodecylamine-perfluorobutane sulfonic acid salt, reference compound] | 2 | 2 | 2 | 2 | 308 °C |  | 
7 | octadecylamine-perfluoroheptanoic Acid Salt [compound 3, reference compound] | 2 | 2 | 2 | 2 | 204 °C |  | 
8 | octylamine-PFTEG sulfonic Acid Salt [Comp. Ex. 1, reference compound] |  |  |  |  | 276 °C |  | 
